Laboratory results published in patent US20230277569A1, “Compositions and Methods for Treating, Ameliorating and/or Preventing Cancer and Kits for the Same” (priority 2022, published 2023).

Columns and labels:
[1] = molecular target: CYP1A2 (Homo sapiens, UniProt P05177); assay: CYP inhibition in liver microsomes, CYP1A2; assay type: in vitro ADME; settings: human liver microsomes 0.1 mg/mL
Experimental: (§4) After addition of prototypical CYP substrates in 250 μL, samples were incubated for 10 min (CYP1A2, CYP2B6, CYP2C9, and CYP3A4) or 20 min (CYP2C8) at 37° C. in 5% CO2. […] Samples were analyzed for metabolite formation by LC-MS/MS. The results were expressed using the peak area ratio of analyte to internal standard, based on the calibration curves.
(§5) where Range=fitted uninhibited value, s=slope factor, x=inhibitor concentration, y=% control activity.

[2] = tested on: colon adenocarcinoma cell lines; settings: colon adenocarcinoma lines of NCI 60 screen; read-out: IC50 anticancer activity; cited from earlier work
[3] = tested on: Caco2 intestinal cell monolayer; assay: in vitro; settings: human, Caco-2, 90 min
Experimental: (§1) Caco2 cells (2×10^4/well) were seeded onto apical chambers of a 24-multiwell insert plate and incubated at 37° C. in 5% CO2. After 21 d, the transepithelial electrical resistance (TEER) in ohms was read for each insert well as a quality control for monolayer integrity (>900 ohms or 300 ohms cm^2). The cell monolayers were incubated with 400 μL transport buffer on the apical (A) and 1.2 mL on the basolateral (B) sides for 30 min. After preincubation, dosing solution was added to the apical (400 μL, A-to-B, donor) or basolateral sides (1.2 mL, B-to-A, donor) or receiving buffer to the apical (400 μL, B-to-A, receiver) or basolateral sides (1.2 mL, A-to-B, receiver) for 90 min at 37° C. in 5% CO2. […] Papp·A>B (nm/s) was calculated with Equation 1.
(§2) Papp Efflux Ratio (ER) was calculated with Equation 2.
(§3) Propranolol (high permeability marker, non-P-gp substate) and digoxin (P-gp substrate) were used as controls.

[4] = in vitro; settings: human
Experimental: as §1, §2, §3

[5] = molecular target: CYP3A4 (Homo sapiens, UniProt P08684); assay: CYP inhibition in liver microsomes, CYP3A4; assay type: in vitro ADME; settings: human liver microsomes 0.1 mg/mL
[6] = Stability and particle size distribution of Gamitrinib Injectable Suspension (GIS); assay type: physicochemical
Experimental: A sequential three-step process was utilized to prepare Good Laboratory Practice (GLP) working solutions of Gamitrinib (5 mg/mL) for preclinical studies. The formulation workflow is as follows: Step 1—Solubilization of Gamitrinib powder in DMSO (2.5%); […] Step 3—Dilution in 5% dextrose (87.5%). […] For Good Manufacturing Practice (GMP) studies, a Gamitrinib Injectable Suspension (GIS) was prepared by microfluidization. Gamitrinib stock solutions prepared as above were passed through a microfluidizer (Dyhydromatics, Acton, Mass.) with rate of flow set at low, medium, and high. At the end of GIS processing, microfluidization was continued at reduced pressure (2000 psi) for 1-2 min. […] Gamitrinib is formulated using a three-step dilution process described in the Materials and Methods section. A sterile, Gamitrinib Injectable Suspension (GIS) is prepared for clinical use using microfluidization with the schematic flowchart shown in FIG. 5B.

[7] = molecular target: CYP2B6 (Homo sapiens, UniProt P20813); assay: CYP inhibition in liver microsomes, CYP2B6; assay type: in vitro ADME; settings: human liver microsomes 0.1 mg/mL
Experimental: as §4, §5

[8] = molecular target: KCNQ1/minK (Homo sapiens, UniProt P51787); assay: Ion channel screening, KCNQ1/minK; assay type: cell-based; settings: n=16, read-out: inhibition of KCNQ1/mink currents
Text: (§6) The parameters measured were the maximum inward current evoked on stepping to −20 mV from the 1st and 26th pulse. Human Kv4.3/KChIP2 currents were evoked from a holding potential of −80 mV by a series of four 500 msec pulses to 0 mV using a 1000 msec interval between pulses. The parameter measured was the amplitude of the outward current 50 msec after the onset of the 4th voltage step to 0 mV. Human Cav1.2 currents were evoked by 2 pulses to −10 mV from a holding potential of −100 mV. The parameters measured were the maximum inward currents evoked on stepping to −10 mV from the holding potential of −100 mV for the 1st and 2nd pulse. Human Kv1.5 currents were evoked by a single pulse from a holding potential of −80 mV to a potential of 0 mV for 4 sec before returning to −80 mV. The parameters measured were the maximum amplitude of outward currents evoked at the beginning of the voltage pulse and at the end of the voltage step from −80 mV to 0 mV. Human KCNQ1/minK currents were evoked by a single pulse delivered from a holding potential of −80 mV to +60 mV for 4 sec before returning to −80 mV. The parameter measured was the maximum outward current evoked on stepping to +60 mV from the holding potential of −80 mV. hERG currents were evoked by a three-pulse protocol where voltage was first stepped to +40 mV for two sec from a holding potential of −80 mV to inactivate hERG channels. […]

[9] = molecular target: Human HCN4 (Homo sapiens, UniProt Q9Y3Q4); assay: Ion channel screening, HCN4; assay type: cell-based; settings: n=16, read-out: inhibition of HCN4 currents
Text: The parameter measured was the maximum outward current evoked on stepping to +60 mV from the holding potential of −80 mV. hERG currents were evoked by a three-pulse protocol where voltage was first stepped to +40 mV for two sec from a holding potential of −80 mV to inactivate hERG channels. The voltage is then stepped back to −50 mV for two sec to evoke a tail current prior to returning to the holding potential for 1 sec. The parameter measured was the amplitude of the 3rd pulse tail current upon stepping back to −50 mV after the step to +40 mV. Human HCN4 currents were evoked by a single pulse from a holding potential of −30 mV to a potential of −110 mV for 4 sec prior to returning to −30 mV. The parameter measured was the maximum inward current evoked upon stepping to −110 mV from the holding potential of −30 mV. Human Kir2.1 currents were evoked from a holding potential of −20 mV by a series of 10 500 msec pulses to −120 mV using a 200 msec interval between pulses. The parameters measured were the amplitudes of the instantaneous inward currents evoked on stepping to −120 mV for the 1st pulse and the maximum inward current at the end of the 10th hyperpolarizing pulse. For all experiments, data were filtered for seal quality, seal drop, and current amplitude.

[10] = molecular target: Human Kv4.3/KChIP2 (Homo sapiens, UniProt Q9UK17); assay: Ion channel screening, Kv4.3/KChIP2; assay type: cell-based; settings: n=13, read-out: inhibition of Kv4.3/KChIP2 currents
Text: as §6

[11] = tested on: tumor cells; settings: in culture; read-out: IC50 tumor cell killing; cited from earlier work
[12] = molecular target: Cav1.2 (Homo sapiens, UniProt Q13936); assay: Ion channel screening, Cav1.2; assay type: cell-based; settings: n=34, pulse 2, read-out: inhibition of Cav1.2 currents
Text: as §6

[13] = tested on: beagle dogs; assay: Electrocardiography studies in beagle dogs; assay type: in vivo
Experimental: At each time point, eight-lead ECGs were continuously recorded for at least 30 sec. At least five consecutive ECG waveforms and the associated RR intervals deemed most representative were selected for quantitative analysis at each time point. The ECG interval measurements (PR, QRS, QT, QTc, RR, and heart rate) were made on a single lead. The measured waveforms at each time point were averaged and reported. The QTc interval was calculated using the Fridericia (QT/[RR]^1/3) method. The RR interval was used to derive the heart rate and in QT interval correction. Qualitative assessments included normal sinus rhythm variations, abnormal sinus rhythms, conductance or repolarization abnormalities, bradycardia, and tachycardia. Group comparisons of ECG data (PR, QRS, QT, QTc, and heart rate) were analyzed using ANOVA.

Sequence of CYP1A2 (P05177 whole entry): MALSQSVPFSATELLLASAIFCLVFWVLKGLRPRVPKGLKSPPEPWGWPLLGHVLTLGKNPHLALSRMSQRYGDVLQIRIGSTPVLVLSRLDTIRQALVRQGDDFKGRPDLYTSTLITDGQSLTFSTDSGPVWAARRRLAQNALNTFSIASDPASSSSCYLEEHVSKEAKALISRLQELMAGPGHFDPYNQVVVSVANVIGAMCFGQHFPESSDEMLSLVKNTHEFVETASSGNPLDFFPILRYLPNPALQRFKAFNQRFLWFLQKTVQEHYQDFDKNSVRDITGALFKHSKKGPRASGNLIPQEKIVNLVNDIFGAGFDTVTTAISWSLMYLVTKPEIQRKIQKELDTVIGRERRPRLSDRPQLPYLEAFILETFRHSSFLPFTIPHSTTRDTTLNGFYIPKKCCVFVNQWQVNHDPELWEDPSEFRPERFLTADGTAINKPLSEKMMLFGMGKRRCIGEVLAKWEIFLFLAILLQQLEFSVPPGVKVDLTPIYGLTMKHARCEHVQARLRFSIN
Sequence of Cav1.2 (Q13936 whole entry): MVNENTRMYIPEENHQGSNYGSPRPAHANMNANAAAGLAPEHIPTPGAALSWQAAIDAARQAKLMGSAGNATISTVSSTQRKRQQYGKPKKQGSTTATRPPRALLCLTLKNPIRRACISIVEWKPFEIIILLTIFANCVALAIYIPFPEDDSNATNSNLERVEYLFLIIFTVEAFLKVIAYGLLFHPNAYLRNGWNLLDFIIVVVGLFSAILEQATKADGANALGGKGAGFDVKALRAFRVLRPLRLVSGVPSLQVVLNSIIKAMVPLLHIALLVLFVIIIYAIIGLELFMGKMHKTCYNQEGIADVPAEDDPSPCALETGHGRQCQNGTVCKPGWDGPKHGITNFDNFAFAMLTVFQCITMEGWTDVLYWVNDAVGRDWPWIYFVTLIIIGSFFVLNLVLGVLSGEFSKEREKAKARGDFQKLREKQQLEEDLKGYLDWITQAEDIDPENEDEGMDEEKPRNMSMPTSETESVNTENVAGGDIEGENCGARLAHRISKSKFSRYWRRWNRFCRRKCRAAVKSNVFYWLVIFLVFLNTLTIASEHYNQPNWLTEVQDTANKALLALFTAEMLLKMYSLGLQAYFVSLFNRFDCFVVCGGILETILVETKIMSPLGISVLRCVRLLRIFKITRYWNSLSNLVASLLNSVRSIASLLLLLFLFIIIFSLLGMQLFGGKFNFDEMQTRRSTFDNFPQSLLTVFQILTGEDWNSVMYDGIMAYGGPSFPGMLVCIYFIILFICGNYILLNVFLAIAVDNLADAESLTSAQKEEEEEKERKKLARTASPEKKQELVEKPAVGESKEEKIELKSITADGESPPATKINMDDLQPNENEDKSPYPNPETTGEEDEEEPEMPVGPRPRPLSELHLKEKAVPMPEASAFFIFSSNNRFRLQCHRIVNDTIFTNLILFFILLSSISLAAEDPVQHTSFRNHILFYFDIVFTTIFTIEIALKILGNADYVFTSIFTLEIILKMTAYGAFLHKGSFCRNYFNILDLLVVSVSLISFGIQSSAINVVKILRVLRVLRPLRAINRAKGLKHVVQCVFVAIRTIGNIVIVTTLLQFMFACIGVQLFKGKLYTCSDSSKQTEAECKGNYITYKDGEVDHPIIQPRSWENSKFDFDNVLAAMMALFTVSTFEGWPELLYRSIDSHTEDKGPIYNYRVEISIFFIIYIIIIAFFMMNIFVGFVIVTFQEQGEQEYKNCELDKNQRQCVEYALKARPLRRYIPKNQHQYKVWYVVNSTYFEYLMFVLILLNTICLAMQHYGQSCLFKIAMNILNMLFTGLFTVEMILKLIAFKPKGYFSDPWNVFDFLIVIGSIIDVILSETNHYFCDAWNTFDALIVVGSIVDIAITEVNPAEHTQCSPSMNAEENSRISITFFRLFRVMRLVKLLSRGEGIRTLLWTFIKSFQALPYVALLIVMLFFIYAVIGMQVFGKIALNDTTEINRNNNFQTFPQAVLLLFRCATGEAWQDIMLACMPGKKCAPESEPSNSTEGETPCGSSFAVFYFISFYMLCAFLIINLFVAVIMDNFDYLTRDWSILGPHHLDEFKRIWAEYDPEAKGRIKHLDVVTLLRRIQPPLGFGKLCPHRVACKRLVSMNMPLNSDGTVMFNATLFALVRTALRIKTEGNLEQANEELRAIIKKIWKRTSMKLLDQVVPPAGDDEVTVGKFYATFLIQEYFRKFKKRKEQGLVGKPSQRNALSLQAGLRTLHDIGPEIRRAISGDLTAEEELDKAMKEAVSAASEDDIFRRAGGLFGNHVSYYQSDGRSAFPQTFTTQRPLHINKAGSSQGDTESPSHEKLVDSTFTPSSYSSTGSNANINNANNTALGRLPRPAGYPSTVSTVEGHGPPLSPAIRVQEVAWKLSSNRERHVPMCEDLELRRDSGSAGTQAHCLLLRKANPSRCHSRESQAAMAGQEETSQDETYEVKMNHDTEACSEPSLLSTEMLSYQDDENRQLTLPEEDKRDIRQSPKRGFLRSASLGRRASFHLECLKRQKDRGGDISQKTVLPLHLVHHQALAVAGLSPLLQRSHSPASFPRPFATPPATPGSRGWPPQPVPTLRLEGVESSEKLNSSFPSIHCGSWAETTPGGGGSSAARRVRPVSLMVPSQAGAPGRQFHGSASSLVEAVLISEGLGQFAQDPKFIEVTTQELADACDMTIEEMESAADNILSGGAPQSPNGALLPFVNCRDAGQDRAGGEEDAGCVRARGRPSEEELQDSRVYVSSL
Sequence of Cav1.2 (Q08289 whole entry partner): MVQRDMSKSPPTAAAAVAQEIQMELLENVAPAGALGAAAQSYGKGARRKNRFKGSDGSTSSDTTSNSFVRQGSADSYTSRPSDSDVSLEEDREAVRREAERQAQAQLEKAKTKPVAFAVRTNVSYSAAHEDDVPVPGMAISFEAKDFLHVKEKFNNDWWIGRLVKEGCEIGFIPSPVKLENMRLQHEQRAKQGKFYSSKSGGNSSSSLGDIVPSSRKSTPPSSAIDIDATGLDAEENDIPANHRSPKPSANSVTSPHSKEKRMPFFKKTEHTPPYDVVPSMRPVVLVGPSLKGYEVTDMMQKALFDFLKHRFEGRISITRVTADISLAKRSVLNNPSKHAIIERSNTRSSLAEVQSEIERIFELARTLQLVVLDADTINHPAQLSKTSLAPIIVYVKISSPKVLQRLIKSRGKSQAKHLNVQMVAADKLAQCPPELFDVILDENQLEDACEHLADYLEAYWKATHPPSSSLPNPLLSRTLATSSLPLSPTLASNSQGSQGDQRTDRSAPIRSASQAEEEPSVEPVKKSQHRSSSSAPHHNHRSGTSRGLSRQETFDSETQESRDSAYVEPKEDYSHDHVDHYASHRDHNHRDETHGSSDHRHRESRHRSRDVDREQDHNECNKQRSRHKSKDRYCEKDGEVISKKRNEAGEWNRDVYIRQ
Sequence of Cav1.2 (P54289 25-956 partner limits assumed): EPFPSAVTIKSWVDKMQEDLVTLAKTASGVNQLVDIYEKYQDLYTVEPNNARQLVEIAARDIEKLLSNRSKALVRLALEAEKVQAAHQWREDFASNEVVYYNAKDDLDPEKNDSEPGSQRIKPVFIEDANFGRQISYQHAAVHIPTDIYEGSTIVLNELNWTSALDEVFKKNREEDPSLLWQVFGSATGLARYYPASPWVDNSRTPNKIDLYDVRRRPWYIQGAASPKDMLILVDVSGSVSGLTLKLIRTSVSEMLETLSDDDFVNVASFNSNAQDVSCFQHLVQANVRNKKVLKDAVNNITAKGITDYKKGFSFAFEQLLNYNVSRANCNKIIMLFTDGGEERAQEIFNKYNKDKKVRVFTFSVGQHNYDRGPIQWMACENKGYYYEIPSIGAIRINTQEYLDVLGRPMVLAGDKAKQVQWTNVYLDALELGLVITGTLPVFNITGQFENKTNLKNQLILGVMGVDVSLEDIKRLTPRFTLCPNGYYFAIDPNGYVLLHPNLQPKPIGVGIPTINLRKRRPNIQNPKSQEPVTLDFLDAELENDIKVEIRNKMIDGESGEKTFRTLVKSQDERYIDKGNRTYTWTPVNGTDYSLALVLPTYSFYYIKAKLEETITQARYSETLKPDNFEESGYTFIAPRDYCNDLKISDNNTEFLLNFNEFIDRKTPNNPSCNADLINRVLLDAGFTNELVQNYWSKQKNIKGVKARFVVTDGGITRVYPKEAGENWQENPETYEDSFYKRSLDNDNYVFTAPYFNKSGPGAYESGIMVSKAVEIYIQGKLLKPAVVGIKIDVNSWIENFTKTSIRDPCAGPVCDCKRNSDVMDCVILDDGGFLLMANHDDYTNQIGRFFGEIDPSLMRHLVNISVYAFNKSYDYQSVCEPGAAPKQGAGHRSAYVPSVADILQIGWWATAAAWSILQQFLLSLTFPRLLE
Sequence of Cav1.2 (P54289 957-1103 partner limits assumed): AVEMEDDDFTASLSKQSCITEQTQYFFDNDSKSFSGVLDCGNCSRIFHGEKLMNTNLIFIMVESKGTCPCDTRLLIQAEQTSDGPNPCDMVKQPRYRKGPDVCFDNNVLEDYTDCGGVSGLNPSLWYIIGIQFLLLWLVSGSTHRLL
Sequence of CYP3A4 (P08684 whole entry): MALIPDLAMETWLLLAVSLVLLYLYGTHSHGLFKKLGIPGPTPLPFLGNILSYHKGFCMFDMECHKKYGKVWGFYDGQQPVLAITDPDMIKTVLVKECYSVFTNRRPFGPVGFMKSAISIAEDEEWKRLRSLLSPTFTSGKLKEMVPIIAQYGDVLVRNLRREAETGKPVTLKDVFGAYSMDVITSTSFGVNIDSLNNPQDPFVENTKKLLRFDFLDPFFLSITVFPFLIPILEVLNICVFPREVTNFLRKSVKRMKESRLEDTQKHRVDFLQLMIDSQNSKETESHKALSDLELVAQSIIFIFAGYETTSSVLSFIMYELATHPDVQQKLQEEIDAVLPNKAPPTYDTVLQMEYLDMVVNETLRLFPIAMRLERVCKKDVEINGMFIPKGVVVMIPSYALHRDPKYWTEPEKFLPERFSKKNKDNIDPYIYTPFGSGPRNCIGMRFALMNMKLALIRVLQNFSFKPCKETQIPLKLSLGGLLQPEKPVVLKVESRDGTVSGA

**Q.** With `CO[C@H]1/C=C\C=C(/C)C(=O)NC2=CC(=O)C(NCCCCCC[P+](c3ccccc3)(c3ccccc3)c3ccccc3)=C(C[C@@H](C)C[C@H](OC)[C@H](O)[C@@H](C)/C=C(\C)[C@@H]1OC(N)=O)C2=O` [Gamitrinib, 17-Demethoxy-17-((6-(triphenylphosphonio)hexyl)amino)geldanamycin] as the molecule, how does the IC50 [1] read?
**A.** Its IC50 is 32.9 µM.

**Q.** What about the IC50 [2] of the same molecule?
**A.** The IC50 was 0.35 to 29 µM.

**Q.** And the “Pexact, B > A” value [3]?
**A.** The value was 1.092 ×10⁻⁶ cm/s.

**Q.** And the Papp B→A at 90 min ([4]; Caco-2)?
**A.** The Papp B→A at 90 min was 1.09 ×10⁻⁶ cm/s.

**Q.** And the efflux ratio at 90 min ([4]; Caco-2, Papp Efflux Ratio (ER))?
**A.** Its efflux ratio at 90 min is 5.77.

**Q.** And the Papp A→B at 90 min ([4]; Caco-2, Papp)?
**A.** Its Papp A→B at 90 min is 0.19 ×10⁻⁶ cm/s.

**Q.** What about the efflux ratio at 90 min ([4]; Caco-2, Pexact Efflux Ratio) of the same molecule?
**A.** The efflux ratio at 90 min was 5.54.

**Q.** What about the Papp A→B at 90 min ([4]; Caco-2, Pexact) of the same molecule?
**A.** Its Papp A→B at 90 min is 0.197 ×10⁻⁶ cm/s.

**Q.** And the IC50 [5]?
**A.** The IC50 was 0.12 to 0.2 µM.

**Q.** What about the “stable (time of storage)” value ([6]; injectable suspension at −20° C.) of the same molecule?
**A.** Its value is at least 24 weeks.

**Q.** What about the particle size ([6]; injectable suspension produced by microfluidization) of the same molecule?
**A.** The particle size was under 200 nm.

**Q.** And the IC50 [7]?
**A.** Its IC50 is 16 µM.

**Q.** And the inhibition at 10 µM [8]?
**A.** The inhibition at 10 µM was 22.5 ± 1.1%.

**Q.** What about the inhibition at 10 µM [9] of the same molecule?
**A.** Its inhibition at 10 µM is -0.2 ± 3.7%.

**Q.** And the inhibition at 10 µM [10]?
**A.** The inhibition at 10 µM was 6.8 ± 2.2%.

**Q.** What about the IC50 [11] of the same molecule?
**A.** The IC50 was 1 to 4 µM.

**Q.** And the inhibition at 10 µM [12]?
**A.** The inhibition at 10 µM was 12.2 ± 1.5%.

**Q.** And the “ECG changes in PR interval, QRS duration, QT interval, or heart rate” value ([13]; d 32 of dosing at 1.25, 3.33 or 6.25 mg/kg/dose, d 11 of recovery at 6.25)?
**A.** Its value is “No Gamitrinib-related ECG changes”.

**Q.** What about the “rhythm abnormalities or qualitative ECG changes” value ([13]; dogs) of the same molecule?
**A.** The value was “No other rhythm abnormalities or qualitative ECG changes were observed”.

**Q.** And the “prolongation of QTc interval” value ([13]; female dogs 6.25 mg/kg/dose, both sexes 1.25 or 3.33 mg/kg/dose)?
**A.** The value was “No Gamitrinib-related prolongation of QTc interval”.

**Q.** What about the “prolongation of QTc interval” value ([13]; one out of 5 male dogs at 6.25 mg/kg/dose, d 32 of dosing) of the same molecule?
**A.** The value was 17 ms.

**Q.** And the “prolongation of QTc interval” value ([13]; one out of 5 male dogs at 6.25 mg/kg/dose, d 32 of dosing, reversed in recovery)?
**A.** The value was 7%.
